Values of other authors in publication PMC3629230, “Permeability Enhancers Dramatically Increase Zanamivir Absolute Bioavailability in Rats: Implications for an Orally Bioavailable Influenza Treatment” (PLoS ONE, 2013).

Experiments:
flu strains = conditions: cited from earlier work
pandemic flu strains = tested on: pandemic flu strains; parameters: method as in earlier work; conditions: 2009 tests; cited from earlier work
seasonal H1N1 = tested on: seasonal H1N1; parameters: method as in earlier work; conditions: 2009 tests; cited from earlier work

CC(=O)N[C@H]1[C@H]([C@H](O)[C@H](O)CO)OC(C(=O)O)=C[C@@H]1N=C(N)N [Zanamivir, zanamivir]
Resistance (flu strains): has not been observed

CCOC(=O)C1=C[C@@H](OC(CC)CC)[C@H](NC(C)=O)[C@@H](N)C1 [oseltamivir]
Strains resistant (pandemic flu strains): 0.5%
Strains resistant (seasonal H1N1): 99.6%
